What all share (format): biochemical
In test [1] the target is T1, JAK2 (Homo sapiens, UniProt O60674).
T1 construct: purchased Invitrogen
The test can be described thus: JAK2 enzyme inhibition test (LANCE method). The following applies: 1 μM test compound; for inhibition at 1 µM: read-out: JAK2 enzyme inhibitory activity (%, 1 μM). In outline:
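Recombinant JAK2 (6 ng/mL solution) phosphorylated ULight-JAK1 peptide (300 nM solution) with ATP (45 μM solution) in pH 7.5 HEPES/MgCl2/DTT buffer for 1 hr at room temperature. After EDTA stop and europium anti-phosphotyrosine antibody for 1 hr, TR-FRET read at 665 nm; inhibition relative to enzyme-free wells as 100%.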

Test [2] concerns the target T2, TYK2 (Homo sapiens, UniProt P29597).
T2 construct: purchased Invitrogen
The test can be described thus: TYK2 enzyme inhibition test (LANCE method). The following applies: 1 μM test compound; for inhibition at 1 µM: read-out: TYK2 enzyme inhibitory activity (%, 1 μM). In outline:
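Recombinant TYK2 (375 ng/mL working solution) with ULight-JAK1 peptide (300 nM working solution) and ATP (30 μM working solution) in HEPES pH 7.5 buffer with MgCl2, EGTA, DTT, Tween20, BSA, reacted 1 h at RT. EDTA-stopped, Eu-anti-phosphotyrosine TR-FRET read at 665 nm; inhibition relative to enzyme-free wells as 100%.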

Test [3] concerns the target T3, JAK3 (Homo sapiens, UniProt P52333).
T3 construct: purchased Invitrogen
T3 sequence (P52333 1-1124): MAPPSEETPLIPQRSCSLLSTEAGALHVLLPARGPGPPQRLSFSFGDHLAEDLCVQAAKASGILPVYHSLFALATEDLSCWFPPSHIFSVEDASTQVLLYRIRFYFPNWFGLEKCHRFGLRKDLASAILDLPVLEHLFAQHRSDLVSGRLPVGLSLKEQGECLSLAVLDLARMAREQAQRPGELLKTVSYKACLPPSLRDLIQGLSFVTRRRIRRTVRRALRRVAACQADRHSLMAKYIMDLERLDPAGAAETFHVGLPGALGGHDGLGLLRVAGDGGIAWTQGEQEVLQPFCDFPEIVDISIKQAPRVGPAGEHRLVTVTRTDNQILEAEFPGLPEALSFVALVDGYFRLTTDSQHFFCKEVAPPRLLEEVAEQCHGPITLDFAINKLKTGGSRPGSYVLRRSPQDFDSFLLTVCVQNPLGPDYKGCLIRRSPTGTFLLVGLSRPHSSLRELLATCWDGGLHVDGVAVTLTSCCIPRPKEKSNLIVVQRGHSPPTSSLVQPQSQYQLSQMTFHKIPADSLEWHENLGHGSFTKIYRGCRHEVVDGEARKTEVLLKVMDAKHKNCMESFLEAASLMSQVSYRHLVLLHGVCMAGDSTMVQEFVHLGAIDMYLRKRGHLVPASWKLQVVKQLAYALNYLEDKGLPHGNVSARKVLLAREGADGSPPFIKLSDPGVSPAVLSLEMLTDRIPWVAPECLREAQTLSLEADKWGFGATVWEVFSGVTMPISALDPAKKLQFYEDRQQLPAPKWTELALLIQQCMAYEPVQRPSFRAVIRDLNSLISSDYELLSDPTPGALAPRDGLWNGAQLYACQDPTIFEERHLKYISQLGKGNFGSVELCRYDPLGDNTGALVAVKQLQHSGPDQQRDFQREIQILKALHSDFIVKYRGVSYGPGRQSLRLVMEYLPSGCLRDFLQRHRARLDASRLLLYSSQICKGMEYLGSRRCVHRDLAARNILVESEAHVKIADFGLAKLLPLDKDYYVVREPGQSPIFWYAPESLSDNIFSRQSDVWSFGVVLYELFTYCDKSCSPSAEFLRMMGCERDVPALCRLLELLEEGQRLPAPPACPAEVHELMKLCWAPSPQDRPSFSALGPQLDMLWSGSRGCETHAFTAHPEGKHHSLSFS
Kind of test: JAK3 enzyme inhibition test (LANCE method). The following applies: 1 μM test compound; for inhibition at 1 µM: read-out: JAK3 enzyme inhibitory activity (%, 1 μM). The method in brief:
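Recombinant JAK3 (12 ng/mL solution) with ULight-JAK1 peptide (300 nM solution) and ATP (15 μM solution) in HEPES pH 7.5 buffer, 1 h at room temperature. EDTA stop with Eu-anti-phosphotyrosine antibody; TR-FRET at 665 nm. Inhibition relative to enzyme-free wells as 100%.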
A general note: TR-FRET usually uses a lanthanide donor and a delayed reading to cut background.

Test [4] deals with T4, JAK1 (Homo sapiens, UniProt P23458).
T4 construct: purchased Invitrogen
T4 sequence (P23458 whole entry): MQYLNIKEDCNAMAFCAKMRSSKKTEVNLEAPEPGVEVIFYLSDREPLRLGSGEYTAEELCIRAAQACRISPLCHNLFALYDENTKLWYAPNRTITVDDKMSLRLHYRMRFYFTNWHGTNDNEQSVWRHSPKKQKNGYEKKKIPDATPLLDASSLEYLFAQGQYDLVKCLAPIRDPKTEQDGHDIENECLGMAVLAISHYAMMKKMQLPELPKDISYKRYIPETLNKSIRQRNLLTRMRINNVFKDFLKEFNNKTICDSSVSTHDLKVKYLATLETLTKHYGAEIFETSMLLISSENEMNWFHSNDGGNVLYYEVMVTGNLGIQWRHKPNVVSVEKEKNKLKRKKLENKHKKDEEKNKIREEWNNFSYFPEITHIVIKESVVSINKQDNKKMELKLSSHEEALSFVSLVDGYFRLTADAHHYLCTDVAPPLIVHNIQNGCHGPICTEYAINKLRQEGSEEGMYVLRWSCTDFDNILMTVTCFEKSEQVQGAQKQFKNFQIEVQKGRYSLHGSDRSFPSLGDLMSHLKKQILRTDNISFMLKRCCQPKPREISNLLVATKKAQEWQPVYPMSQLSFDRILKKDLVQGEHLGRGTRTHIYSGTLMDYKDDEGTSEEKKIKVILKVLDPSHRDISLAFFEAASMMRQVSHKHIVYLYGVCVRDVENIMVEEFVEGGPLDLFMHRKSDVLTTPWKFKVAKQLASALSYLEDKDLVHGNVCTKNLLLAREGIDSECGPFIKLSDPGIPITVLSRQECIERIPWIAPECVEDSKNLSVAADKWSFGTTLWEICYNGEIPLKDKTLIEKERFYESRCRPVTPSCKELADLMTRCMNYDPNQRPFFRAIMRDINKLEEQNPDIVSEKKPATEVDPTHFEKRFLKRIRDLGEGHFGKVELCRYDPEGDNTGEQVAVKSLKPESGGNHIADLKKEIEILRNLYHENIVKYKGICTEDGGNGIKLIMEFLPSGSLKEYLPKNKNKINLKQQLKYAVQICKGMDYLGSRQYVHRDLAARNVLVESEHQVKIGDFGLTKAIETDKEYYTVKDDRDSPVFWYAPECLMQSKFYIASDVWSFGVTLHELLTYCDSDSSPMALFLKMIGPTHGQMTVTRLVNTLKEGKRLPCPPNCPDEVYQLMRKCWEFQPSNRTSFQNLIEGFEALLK
The test can be described thus: JAK1 enzyme inhibition test (LANCE method). To be noted: 1 μM test compound; for inhibition at 1 µM: read-out: JAK1 enzyme inhibitory activity (%, 1 μM). The method in brief: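 TR-FRET (LANCE) with ULight-JAK1 peptide (300 nM working solution) and ATP (150 μM working solution) in HEPES pH 7.5, MgCl2, EGTA, DTT buffer; 1 h at room temperature. EDTA stop plus Eu-anti-phosphotyrosine antibody, 665 nm read after 1 h. Inhibition relative to enzyme-free wells as 100%.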

Structures are written as SMILES.

T2 sequence (P29597 whole entry): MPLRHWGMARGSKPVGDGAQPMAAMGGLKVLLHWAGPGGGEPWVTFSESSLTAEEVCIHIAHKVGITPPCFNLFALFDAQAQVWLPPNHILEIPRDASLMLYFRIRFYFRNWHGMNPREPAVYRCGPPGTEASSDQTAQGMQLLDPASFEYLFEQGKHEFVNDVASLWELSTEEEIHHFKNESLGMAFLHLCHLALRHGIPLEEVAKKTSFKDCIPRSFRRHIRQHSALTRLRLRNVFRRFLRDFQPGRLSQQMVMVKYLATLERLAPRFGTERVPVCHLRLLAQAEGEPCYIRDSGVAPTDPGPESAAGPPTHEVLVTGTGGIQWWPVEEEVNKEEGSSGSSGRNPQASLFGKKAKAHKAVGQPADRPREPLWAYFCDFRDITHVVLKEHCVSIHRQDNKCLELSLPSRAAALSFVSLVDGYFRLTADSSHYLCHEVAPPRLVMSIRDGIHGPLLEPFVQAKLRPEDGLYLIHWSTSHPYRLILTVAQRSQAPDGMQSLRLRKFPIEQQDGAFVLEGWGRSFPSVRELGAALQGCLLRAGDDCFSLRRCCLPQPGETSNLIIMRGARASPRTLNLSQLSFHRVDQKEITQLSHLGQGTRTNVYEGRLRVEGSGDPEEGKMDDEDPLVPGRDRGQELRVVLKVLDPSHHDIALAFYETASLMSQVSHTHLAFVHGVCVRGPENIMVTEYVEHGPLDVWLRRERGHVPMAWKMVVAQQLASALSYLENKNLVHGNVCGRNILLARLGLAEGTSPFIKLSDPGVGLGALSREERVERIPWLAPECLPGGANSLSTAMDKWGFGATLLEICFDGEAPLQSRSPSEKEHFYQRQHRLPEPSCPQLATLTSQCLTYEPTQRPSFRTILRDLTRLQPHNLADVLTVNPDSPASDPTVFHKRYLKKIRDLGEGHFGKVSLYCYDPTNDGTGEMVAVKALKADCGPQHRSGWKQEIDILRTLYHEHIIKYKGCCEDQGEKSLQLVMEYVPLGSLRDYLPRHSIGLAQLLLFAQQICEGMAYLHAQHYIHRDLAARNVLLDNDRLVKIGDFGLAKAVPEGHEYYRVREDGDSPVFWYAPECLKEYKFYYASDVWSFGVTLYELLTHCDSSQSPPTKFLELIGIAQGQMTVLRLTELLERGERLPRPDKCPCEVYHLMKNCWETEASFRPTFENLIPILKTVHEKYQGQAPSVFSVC
T1 sequence (O60674 whole entry): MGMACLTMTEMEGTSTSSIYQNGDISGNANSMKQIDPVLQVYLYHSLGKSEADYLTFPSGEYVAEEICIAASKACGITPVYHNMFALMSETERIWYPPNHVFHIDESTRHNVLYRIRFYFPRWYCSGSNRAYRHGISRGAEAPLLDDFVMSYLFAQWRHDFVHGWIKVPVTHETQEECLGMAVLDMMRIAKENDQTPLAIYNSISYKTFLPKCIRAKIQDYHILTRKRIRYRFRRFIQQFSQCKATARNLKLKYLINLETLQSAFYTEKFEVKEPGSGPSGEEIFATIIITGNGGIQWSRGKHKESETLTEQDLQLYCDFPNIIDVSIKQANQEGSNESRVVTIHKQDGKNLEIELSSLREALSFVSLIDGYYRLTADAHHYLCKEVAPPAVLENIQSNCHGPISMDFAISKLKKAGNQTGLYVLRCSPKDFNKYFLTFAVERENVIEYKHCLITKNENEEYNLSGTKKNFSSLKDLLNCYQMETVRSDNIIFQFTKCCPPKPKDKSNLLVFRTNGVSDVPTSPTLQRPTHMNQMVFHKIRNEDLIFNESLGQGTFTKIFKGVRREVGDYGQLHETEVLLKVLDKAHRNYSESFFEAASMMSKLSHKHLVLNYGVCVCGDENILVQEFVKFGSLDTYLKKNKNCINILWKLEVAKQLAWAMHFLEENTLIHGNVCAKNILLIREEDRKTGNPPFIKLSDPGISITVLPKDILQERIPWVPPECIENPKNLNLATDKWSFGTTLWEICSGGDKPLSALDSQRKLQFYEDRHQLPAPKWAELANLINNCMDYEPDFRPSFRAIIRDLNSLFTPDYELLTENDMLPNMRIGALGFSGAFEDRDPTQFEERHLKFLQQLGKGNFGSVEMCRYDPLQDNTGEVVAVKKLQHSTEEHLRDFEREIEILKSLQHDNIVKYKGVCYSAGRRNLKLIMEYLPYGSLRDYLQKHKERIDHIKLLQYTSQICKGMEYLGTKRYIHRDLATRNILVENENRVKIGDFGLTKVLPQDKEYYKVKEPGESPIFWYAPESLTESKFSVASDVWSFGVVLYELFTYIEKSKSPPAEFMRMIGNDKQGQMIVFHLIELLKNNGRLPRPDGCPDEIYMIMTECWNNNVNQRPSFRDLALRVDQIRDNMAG

Turning to `CC(C)[C@H](C)n1cc(-c2cc(C(C)(C)O)n(C)n2)c2[nH]nc(N)c2c1=O` [Example 1, 3-amino-7-(5-(2-hydroxypropan-2-yl)-1-methyl-1H-pyrazol-3-yl)-5-((2S)-3-methylbutan-2-yl)-1,5-dihydro-4H-pyrazolo[4,3-c]pyridin-4-one], the inhibition at 1 µM in test [1] was determined as 98%; in test [2] it was 99%; in test [3], 100%; in test [4], 97%.

For `CO[C@H]1CCN(c2cc(-c3cn(C(C4CC4)C4CC4)c(=O)c4c(N)n[nH]c34)nn2C)C1` [Example 167, 3-amino-5-(dicyclopropylmethyl)-7-(5-((3S)-3-methoxypyrrolidin-1-yl)-1-methyl-1H-pyrazol-3-yl)-1,5-dihydro-4H-pyrazolo[4,3-c]pyridin-4-one], the inhibition at 1 µM in test [1] stood at 99%; in test [2], 101%; in test [3], 100%; in test [4] it was 100%.

As for `C[C@@H](C1CC1)n1cc(-c2cc(N3CCOCC3)n(C)n2)c2[nH]nc(N)c2c1=O` [Example 5, 3-amino-5-((1S)-1-cyclopropylethyl)-7-(1-methyl-5-(morpholin-4-yl)-1H-pyrazol-3-yl)-1,5-dihydro-4H-pyrazolo[4,3-c]pyridin-4-one], the inhibition at 1 µM turned out to be 100% in test [1], 100% in test [2], 100% in test [3] and 99% in test [4].

Take `CC(C)[C@@H](C)n1cc(-c2cc(C(C)(C)O)n(C)n2)c2[nH]nc(N)c2c1=O` [Example 100, 3-amino-7-(5-(2-hydroxypropan-2-yl)-1-methyl-1H-pyrazol-3-yl)-5-((2R)-3-methylbutan-2-yl)-1,5-dihydro-4H-pyrazolo[4,3-c]pyridin-4-one]: the inhibition at 1 µM in test [1] was found to be 65%; in test [2], 96%; in test [3], 86%; in test [4] it was 82%.

On to `Cn1nc(-c2cn(C3CCCC3(C)C)c(=O)c3c(N)n[nH]c23)cc1N1CCOCC1` (centres unmarked) [Example 76, 3-amino-5-(2,2-dimethylcyclopentyl)-7-(1-methyl-5-(morpholin-4-yl)-1H-pyrazol-3-yl)-1,5-dihydro-4H-pyrazolo[4,3-c]pyridin-4-one], for which the inhibition at 1 µM in test [1] amounted to 99%; in test [2], 100%; in test [3], 100%; in test [4], 99%.

With `COC1(c2cc(-c3cn(C(C#N)C(C)C)c(=O)c4c(N)n[nH]c34)nn2C)CCC(F)(F)CC1` (centres unmarked) [Example 138, 2-(3-amino-7-(5-(4,4-difluoro-1-methoxycyclohexyl)-1-methyl-1H-pyrazol-3-yl)-4-oxo-1,4-dihydro-5H-pyrazolo[4,3-c]pyridin-5-yl)-3-methylbutanenitrile], in test [1] (1 µM), the “JAK2 enzyme inhibitory activity (%, 1 μM)” value turned out to be 99%. The “TYK2 enzyme inhibitory activity (%, 1 μM)” value in test [2] (1 µM) came out at 99%. Also, the “JAK3 enzyme inhibitory activity (%, 1 μM)” value in test [3] (1 µM) was determined as 99%. In addition, the “JAK1 enzyme inhibitory activity (%, 1 μM)” value in test [4] (1 µM) turned out to be 96%.

For the molecule `CC(=O)N1CCN(c2cc(-c3cn([C@@H](C)C(C)C)c(=O)c4c(N)n[nH]c34)nn2C)CC1` [Example 11, 7-(5-(4-acetylpiperazin-1-yl)-1-methyl-1H-pyrazol-3-yl)-3-amino-5-((2S)-3-methylbutan-2-yl)-1,5-dihydro-4H-pyrazolo[4,3-c]pyridin-4-one], the inhibition at 1 µM turned out to be 99% in test [1], 100% in test [2], 99% in test [3] and 98% in test [4].

As to `COCCN(C)C(=O)c1cc(-c2cn([C@@H](C)C(C)C)c(=O)c3c(N)n[nH]c23)nn1C` [Example 46, 3-(3-amino-5-((2S)-3-methylbutan-2-yl)-4-oxo-4,5-dihydro-1H-pyrazolo[4,3-c]pyridin-7-yl)-N-(2-methoxyethyl)-N,1-dimethyl-1H-pyrazole-5-carboxamide], the inhibition at 1 µM in test [1] was 98%; in test [2], 99%; in test [3], 99%; in test [4] it was 95%.

Take `CN(C)[C@H]1CCN(c2cc(-c3cn(C(C4CC4)C4CC4)c(=O)c4c(N)n[nH]c34)nn2C)C1` [Example 160, 3-amino-5-(dicyclopropylmethyl)-7-(5-((3S)-3-(dimethylamino)pyrrolidin-1-yl)-1-methyl-1H-pyrazol-3-yl)-1,5-dihydro-4H-pyrazolo[4,3-c]pyridin-4-one]: the inhibition at 1 µM turned out to be 100% in test [1], 100% in test [2], 100% in test [3] and 99% in test [4].

For the molecule `CC(C)[C@H](C)n1cc(-c2cc(N3CCC(F)(F)C3)n(C)n2)c2[nH]nc(N)c2c1=O` [Example 106, 3-amino-7-(5-(3,3-difluoropyrrolidin-1-yl)-1-methyl-1H-pyrazol-3-yl)-5-((2S)-3-methylbutan-2-yl)-1,5-dihydro-4H-pyrazolo[4,3-c]pyridin-4-one], the inhibition at 1 µM turned out to be 99% in test [1], 100% in test [2], 99% in test [3] and 97% in test [4].

Consider `CC(C)[C@H](C)n1cc(-c2cc(N3CCN(S(=O)(=O)C(C)C)CC3)n(C)n2)c2[nH]nc(N)c2c1=O` [Example 102, 3-amino-7-(5-(4-(isopropylsulfonyl)piperazin-1-yl)-1-methyl-1H-pyrazol-3-yl)-5-((2S)-3-methylbutan-2-yl)-1,5-dihydro-4H-pyrazolo[4,3-c]pyridin-4-one], for which the inhibition at 1 µM in test [1] came to 98%; in test [2], 100%; in test [3], 99%; in test [4], 97%.

Take `COC(C)(C)c1cc(-c2cn([C@@H](C)C(C)C)c(=O)c3c(N)n[nH]c23)nn1C` [Example 109, 3-amino-7-(5-(2-methoxypropan-2-yl)-1-methyl-1H-pyrazol-3-yl)-5-((2S)-3-methylbutan-2-yl)-1,5-dihydro-4H-pyrazolo[4,3-c]pyridin-4-one]: the inhibition at 1 µM in test [1] amounted to 99%; in test [2] it was 99%; in test [3] it was 99%; in test [4], 98%.

For the molecule `CN(C)[C@@H]1CCN(c2cc(-c3cn(-c4c(F)cccc4F)c(=O)c4c(N)n[nH]c34)nn2C)C1` [Example 125, 3-amino-5-(2,6-difluorophenyl)-7-(5-((3R)-3-(dimethylamino)pyrrolidin-1-yl)-1-methyl-1H-pyrazol-3-yl)-1,5-dihydro-4H-pyrazolo[4,3-c]pyridin-4-one], the inhibition at 1 µM in test [1] came out at 98%; in test [2] it was 99%; in test [3], 99%; in test [4], 98%.

With `CO[C@@H]1CCN(c2cc(-c3cn([C@@H](C)C(C)C)c(=O)c4c(N)n[nH]c34)nn2C)C1` [Example 24, 3-amino-7-(5-((3R)-3-methoxypyrrolidin-1-yl)-1-methyl-1H-pyrazol-3-yl)-5-((2S)-3-methylbutan-2-yl)-1,5-dihydro-4H-pyrazolo[4,3-c]pyridin-4-one], the inhibition at 1 µM in test [1] was 98%; in test [2], 100%; in test [3], 99%; in test [4], 96%.

(Values after patent US9637483B2, “Heterocyclic compound” (TAKEDA PHARMACEUTICAL COMPANY LIMITED, priority 2013, dated 2017).)
